# Data from patent US20020123080A1, “Inhibiting proliferation of cancer cells” (Tufts University, priority 1996, published 2002).
# Tested on: MCF-7 cells
# Assay: MCF-7 cell proliferation yield assay (nuclei counted after 4 days) with or without hormone
# Type: cell-based, human
# Conditions: hormone added with the inhibitor (CDHuS, CDHA, rHA); estradiol at 100 pM; the other hormones tested against rHA, data not shown
# Experimental: A clonal population of the human breast cancer MCF-7 cell line was used in some of the experiments described below. These cells were routinely grown in 5% fetal bovine serum (FBS) supplemented-Dulbecco's Modified Eagle's Medium (DME). […] Estrogen non-target, serum-insensitive human breast cancer MDA-MB231 cells (ATCC, Rockville, Md.) were used as controls; they were grown under the same conditions as MCF-7 cells.
# To assess the inhibitory effect of serum or purified protein preparations, 4×10^4 cells/well were seeded in 12-well Falcon Multiplates in 5% FBS; they were allowed to attach for 24 h before exposing them to test medium. Cell proliferation yields were measured after 4 days in DME plus 25 ug transferrin (T)/ml and 100 ng insulin (I)/ml ([…]) alone, or ITDME plus CD human serum (CDHuS), or purified protein preparations. Each sample was tested in duplicate in the presence or absence of 100 pM estradiol (E2) and each experiment was repeated at least three times. Phenol red-free media were used in all experiments involving cell proliferation rates or yields. Cells were lysed and nuclei counted on a Coulter Counter Model ZM.
row,Structure (SMILES),reversal by hormone of the inhibitory effect on MCF-7 proliferation
1,C[C@]1(O)CC[C@H]2[C@@H]3CCC4=CC(=O)CCC4=C3C=C[C@@]21C [R1881],failed to reverse the effect of rHA
2,C[C@]12CCC(=O)C=C1CC[C@@H]1[C@@H]2[C@@H](O)C[C@@]2(C)[C@H]1CC[C@]2(O)C(=O)CO [hydrocortisone],failed to reverse the effect of rHA
3,CC(=O)[C@H]1CC[C@H]2[C@@H]3CCC4=CC(=O)CC[C@]4(C)[C@H]3CC[C@]12C [Progesterone],failed to reverse the effect of rHA
4,C[C@]12CCC(=O)C[C@@H]1CC[C@@H]1[C@@H]2CC[C@]2(C)[C@@H](O)CC[C@@H]12 [5α-dihydrotestosterone],failed to reverse the effect of rHA
5,N[C@@H](Cc1cc(I)c(Oc2cc(I)c(O)c(I)c2)c(I)c1)C(=O)O [thyroxine],failed to reverse the effect of rHA
